# Assay results published in ChEMBL document CHEMBL1671624, “Efficacy of quinoxaline-2-carboxylate 1,4-di-N-oxide derivatives in experimental tuberculosis” (Antimicrob Agents Chemother, 2008).
# Key:
# Assay type in all cases: functional
# [1] = test system: Mycobacterium tuberculosis; test: Antibacterial activity against ethionamide-resistant Mycobacterium tuberculosis by microplate Alamar Blue assay
# [2] = test system: Mycobacterium tuberculosis; test: Antibacterial activity against ciprofloxacin-resistant Mycobacterium tuberculosis by microplate Alamar Blue assay
# [3] = test system: Mycobacterium tuberculosis; test: Antibacterial activity against kanamycin-resistant Mycobacterium tuberculosis by microplate Alamar Blue assay
# [4] = test system: Mycobacterium tuberculosis; test: Antibacterial activity against isoniazid-resistant Mycobacterium tuberculosis by microplate Alamar Blue assay
# [5] = test system: Mycobacterium tuberculosis; test: Antibacterial activity against thiacetazone-resistant Mycobacterium tuberculosis by microplate Alamar Blue assay
# [6] = test system: Mycobacterium tuberculosis; test: Antibacterial activity against ethambutol-resistant Mycobacterium tuberculosis by microplate Alamar Blue assay
# [7] = test system: Mycobacterium tuberculosis; test: Antibacterial activity against rifampin-resistant Mycobacterium tuberculosis by microplate Alamar Blue assay
SMILES,MIC [1] [µg/mL],MIC [2] [µg/mL],MIC [3] [µg/mL],MIC [4] [µg/mL],MIC [5] [µg/mL],MIC [6] [µg/mL],MIC [7] [µg/mL]
CCOC(=O)c1c(C)[n+]([O-])c2cc(C)c(C)cc2[n+]1[O-],6.25,12.5,≤ 3.13,6.25,≤ 3.13,≤ 3.13,≤ 3.13
CCOC(=O)c1c(C)[n+]([O-])c2ccc(C)cc2[n+]1[O-],6.25,6.25,–,–,0.39,–,3.13
CCOC(=O)c1c(C)[n+]([O-])c2ccccc2[n+]1[O-],–,3.13,1.56,1.56,–,–,1.56
CCOC(=O)c1c(C)[n+]([O-])c2cc(Cl)c(Cl)cc2[n+]1[O-],–,0.2,≤ 0.1,0.39,–,0.2,0.2
COCCOC(=O)c1c(C)[n+]([O-])c2cc(Cl)c(Cl)cc2[n+]1[O-],0.78,0.39,–,≤ 0.2,0.39,–,≤ 0.2
Cc1ccc2c(c1)[n+]([O-])c(C(=O)OCc1ccccc1)c(C)[n+]2[O-],1.56,0.39,–,–,0.39,–,0.39
Cc1c(C(=O)OCc2ccccc2)[n+]([O-])c2ccccc2[n+]1[O-],0.4,0.1,–,0.2,0.2,–,0.2
Cc1c(C(=O)OCc2ccccc2)[n+]([O-])c2cc(Cl)c(Cl)cc2[n+]1[O-],0.78,0.39,0.39,1.56,0.78,0.78,0.39
COC(=O)c1c(C)[n+]([O-])c2ccc(C)cc2[n+]1[O-],3.13,6.25,25,6.25,1.56,25,3.13
COC(=O)c1c(C)[n+]([O-])c2cc(C)c(C)cc2[n+]1[O-],3.13,3.13,3.13,3.13,≤ 1.56,≤ 1.56,3.13
CCOC(=O)c1c(C)[n+]([O-])c2ccc(Cl)cc2[n+]1[O-],–,0.78,0.39,0.39,–,0.39,0.39
